In patent US8541407B2 (ArQule, Inc., priority 2010, dated 2013):
Counter-ions that a name gives are not always drawn.

Experiments:
[1] = target: AKT1 (Homo sapiens (Human), UniProt P31749); assay: Inactive Akt Alpha Screen Assay; settings: non *labeled: Akt Alpha Screen assay; read-out: AKT1 biochemical assay, IC50
In short: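 AKT1 activated in situ by PDK1, MAPKAPK2, lipid vesicles and ATP, then phosphorylating biotinylated crosstide for 30 min at room temperature. Stopped with 10 mM EDTA; phosphopeptide detected by AlphaScreen using phospho-AKT substrate antibody (1:350), Protein A acceptor and streptavidin donor beads, 90 min dark, ex 640/em 570 nm.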

[2] = tested on: A2780; assay: MTS Assay, cell proliferation analysis (A2780); format: cell-based; settings: Homo sapiens; A2780 cells; 72 hours; 10 Percent FBS
Experimental: (§1) Cell proliferation analysis. Cell survival was determined by the MTS assay. Briefly, cells were plated in a 96-well plate at 2,000-10,000 cells per well, cultured for 24 hours in complete growth medium, and then treated with representative compounds of the invention or combinations thereof for 72 hours. MTS was added and incubated for 4 hours, followed by assessment of cell viability by using the microplate reader at 570 nm. Data were normalized to untreated controls and analyzed.

[3] = tested on: AN3-CA; assay: MTS Assay, cell proliferation analysis (AN3-CA); format: cell-based; settings: Homo sapiens; AN3-CA cells; 72 hours; 10 Percent FBS
Experimental: as §1

[4] = tested on: IGROV-1; assay: MTS Assay, cell proliferation analysis (IGROV-1); format: cell-based; settings: Homo sapiens; IGROV-1 cells; 72 hours; 10 Percent FBS
Experimental: as §1

AKT1, sequence (P31749 whole entry): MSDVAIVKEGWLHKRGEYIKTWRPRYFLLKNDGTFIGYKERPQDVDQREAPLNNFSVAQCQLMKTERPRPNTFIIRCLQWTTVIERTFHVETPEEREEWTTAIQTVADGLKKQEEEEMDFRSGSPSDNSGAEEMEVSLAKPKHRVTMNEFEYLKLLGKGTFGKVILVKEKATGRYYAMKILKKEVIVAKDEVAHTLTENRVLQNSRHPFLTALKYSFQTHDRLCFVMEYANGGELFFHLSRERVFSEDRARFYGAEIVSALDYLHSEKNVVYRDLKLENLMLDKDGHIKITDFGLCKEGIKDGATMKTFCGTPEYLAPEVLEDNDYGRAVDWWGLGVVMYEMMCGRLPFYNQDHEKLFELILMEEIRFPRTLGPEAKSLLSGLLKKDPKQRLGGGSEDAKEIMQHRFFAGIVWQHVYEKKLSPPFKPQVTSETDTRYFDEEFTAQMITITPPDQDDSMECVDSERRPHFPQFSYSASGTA

Structure (SMILES) | IC50 [1] [µM] | IC50 [2] [µM] | IC50 [3] [µM] | IC50 [4] [µM]
COc1cccc(C(=O)Nc2ccc(-c3nnc4n3-c3cccnc3Nc3ccccc3-4)cc2)c1 [Example 27, N-(4-(9H-benzo[f]pyrido[2,3-b][1,2,4]triazolo[4,3-d][1,4]diazepin-3-yl)phenyl)-3-methoxybenzamide] | 0.16 | 10 | 25 | 23
Cc1ccc(C(=O)Nc2ccc(-c3nnc4n3-c3cccnc3Nc3ccccc3-4)cc2)cc1 [Example 30, N-(4-(9H-benzo[f]pyrido[2,3-b][1,2,4]triazolo[4,3-d][1,4]diazepin-3-yl)phenyl)-4-methylbenzamide] | 0.1 | 6 | 7 | 28
O=C(Nc1ccc(-c2nnc3n2-c2cccnc2Nc2ccccc2-3)cc1)c1ccc(F)cc1 [Example 56, N-(4-(9H-benzo[f]pyrido[2,3-b][1,2,4]triazolo[4,3-d][1,4]diazepin-3-yl)phenyl)-4-fluorobenzamide] | 0.11 | 14 | 28 | 70
O=C(Nc1ccc(-c2nnc3n2-c2cccnc2Nc2ccccc2-3)cc1)c1ccccc1 [Example 59, N-(4-(9H-benzo[f]pyrido[2,3-b][1,2,4]triazolo[4,3-d][1,4]diazepin-3-yl)phenyl)benzamide] | 0.07 | 32 | 28 | –
O=C(NCCc1ccc(-c2nnc3n2-c2cccnc2Nc2ccccc2-3)cc1)Nc1ccccc1 [Example 110, 1-(4-(9H-benzo[f]pyrido[2,3-b][1,2,4]triazolo[4,3-d][1,4]diazepin-3-yl)phenethyl)-3-phenylurea] | 0.12 | 6 | 8 | –
COc1cccc(S(=O)(=O)NCc2ccc(-c3nnc4n3-c3cccnc3Nc3ccccc3-4)cc2)c1 [Example 114, N-(4-(9H-benzo[f]pyrido[2,3-b][1,2,4]triazolo[4,3-d][1,4]diazepin-3-yl)benzyl)-3-methoxybenzenesulfonamide] | 0.14 | 16 | 25 | –
Cc1cccc(S(=O)(=O)NCc2ccc(-c3nnc4n3-c3cccnc3Nc3ccccc3-4)cc2)c1 [Example 115, N-(4-(9H-benzo[f]pyrido[2,3-b][1,2,4]triazolo[4,3-d][1,4]diazepin-3-yl)benzyl)-3-methylbenzenesulfonamide] | 0.11 | 16 | 28 | –
O=S(=O)(NCc1ccc(-c2nnc3n2-c2cccnc2Nc2ccccc2-3)cc1)c1cccc(Cl)c1 [Example 116, N-(4-(9H-benzo[f]pyrido[2,3-b][1,2,4]triazolo[4,3-d][1,4]diazepin-3-yl)benzyl)-3-chlorobenzenesulfonamide] | 0.15 | 21 | 23 | –
O=S(=O)(NCc1ccc(-c2nnc3n2-c2cccnc2Nc2ccccc2-3)cc1)c1ccc(F)cc1 [Example 117, N-(4-(9H-benzo[f]pyrido[2,3-b][1,2,4]triazolo[4,3-d][1,4]diazepin-3-yl)benzyl)-4-fluorobenzenesulfonamide] | 0.12 | 19 | 37 | –
Cc1ccc(S(=O)(=O)NCc2ccc(-c3nnc4n3-c3cccnc3Nc3ccccc3-4)cc2)cc1 [Example 118, N-(4-(9H-benzo[f]pyrido[2,3-b][1,2,4]triazolo[4,3-d][1,4]diazepin-3-yl)benzyl)-4-methylbenzenesulfonamide] | 0.11 | 14 | 28 | –
O=C(NCc1ccc(-c2nnc3n2-c2cccnc2Nc2ccccc2-3)cc1)Nc1ccccc1F [Example 121, 1-(4-(9H-benzo[f]pyrido[2,3-b][1,2,4]triazolo[4,3-d][1,4]diazepin-3-yl)benzyl)-3-(2-fluorophenyl)urea] | 0.31 | 16 | 27 | –
COc1cccc(NC(=O)NCc2ccc(-c3nnc4n3-c3cccnc3Nc3ccccc3-4)cc2)c1 [Example 123, 1-(4-(9H-benzo[f]pyrido[2,3-b][1,2,4]triazolo[4,3-d][1,4]diazepin-3-yl)benzyl)-3-(3-methoxyphenyl)urea] | 0.13 | 27 | 48 | –
ClCc1ccc(-c2nnc3n2-c2cccnc2Nc2ccccc2-3)cc1 [Example 127, 3-(4-(chloromethyl)phenyl)-9H-benzo[f]pyrido[2,3-b][1,2,4]triazolo[4,3-d][1,4]diazepine] | 1.9 | 9 | – | 13
O=c1[nH]c2ccccc2n1C1CCN(Cc2ccc(-c3nnc4n3-c3ccccc3Nc3ccccc3-4)cc2)CC1 [Example 128, 1-(1-(4-(9H-dibenzo[b,f][1,2,4]triazolo[4,3-d][1,4]diazepin-3-yl)benzyl)piperidin-4-yl)-1H-benzo[d]imidazol-2(3H)-one] | 0.94 | 11 | – | > 100
O=S(=O)(NC1CCN(Cc2ccc(-c3nnc4n3-c3cccnc3Nc3ccccc3-4)cc2)CC1)c1ccc2c(c1)OCCO2 [Example 156, N-(1-(4-(9H-benzo[f]pyrido[2,3-b][1,2,4]triazolo[4,3-d][1,4]diazepin-3-yl)benzyl)piperidin-4-yl)-2,3-dihydrobenzo[b][1,4]dioxine-6-sulfonamide] | 2 | 15 | 20 | –
Cc1ccc(NC(=O)NC2CCN(Cc3ccc(-c4nnc5n4-c4cccnc4Nc4ccccc4-5)cc3)CC2)cc1 [Example 168, 1-(1-(4-(9H-benzo[f]pyrido[2,3-b][1,2,4]triazolo[4,3-d][1,4]diazepin-3-yl)benzyl)piperidin-4-yl)-3-(p-tolyl)urea] | 0.44 | 15 | 22 | –
O=C(Nc1cccc(C(F)(F)F)c1)NC1CCN(Cc2ccc(-c3nnc4n3-c3cccnc3Nc3ccccc3-4)cc2)CC1 [Example 174, 1-(1-(4-(9H-benzo[f]pyrido[2,3-b][1,2,4]triazolo[4,3-d][1,4]diazepin-3-yl)benzyl)piperidin-4-yl)-3-(3-(trifluoromethyl)phenyl)urea] | 0.63 | 8 | 13 | –
O=C(NCCc1cccs1)NC1CCN(Cc2ccc(-c3nnc4n3-c3cccnc3Nc3ccccc3-4)cc2)CC1 [Example 182, 1-(1-(4-(9H-benzo[f]pyrido[2,3-b][1,2,4]triazolo[4,3-d][1,4]diazepin-3-yl)benzyl)piperidin-4-yl)-3-(2-(thiophen-2-yl)ethyl)urea] | 0.75 | 10 | 28 | –
c1ccc(-n2cc(COCc3ccc(-c4nnc5n4-c4cccnc4Nc4ccccc4-5)cc3)nn2)cc1 [Example 186, 3-(4-(((1-phenyl-1H-1,2,3-triazol-4-yl)methoxy)methyl)phenyl)-9H-benzo[f]pyrido[2,3-b][1,2,4]triazolo[4,3-d][1,4]diazepine] | 0.49 | 3 | 4 | –
c1ccc2c(c1)Nc1ncccc1-n1c(-c3ccc(CN4CCC(c5c[nH]c6ccccc56)CC4)cc3)nnc1-2 [Example 187, 3-(4-((4-(1H-indol-3-yl)piperidin-1-yl)methyl)phenyl)-9H-benzo[f]pyrido[2,3-b][1,2,4]triazolo[4,3-d][1,4]diazepine] | 0.5 | 6 | 8 | –
O=C(NC1(c2ccc(-c3nnc4n3-c3cccnc3Nc3ccccc3-4)cc2)CCC1)c1ccccc1 [Example 193, N-(1-(4-(9H-benzo[f]pyrido[2,3-b][1,2,4]triazolo[4,3-d][1,4]diazepin-3-yl)phenyl)cyclobutyl)benzamide] | 0.073 | 12 | 22 | –
O=S(=O)(NC1(c2ccc(-c3nnc4n3-c3cccnc3Nc3ccccc3-4)cc2)CCC1)c1ccccc1 [Example 195, N-(1-(4-(9H-benzo[f]pyrido[2,3-b][1,2,4]triazolo[4,3-d][1,4]diazepin-3-yl)phenyl)cyclobutyl)benzenesulfonamide] | 0.28 | 11 | 16 | –
Cc1ccc(S(=O)(=O)NC2(c3ccc(-c4nnc5n4-c4cccnc4Nc4ccccc4-5)cc3)CCC2)cc1 [Example 198, N-(1-(4-(9H-benzo[f]pyrido[2,3-b][1,2,4]triazolo[4,3-d][1,4]diazepin-3-yl)phenyl)cyclobutyl)-4-methylbenzenesulfonamide] | 0.34 | 12 | 17 | –
Fc1ccc2c(CCNCc3ccc(-c4nnc5n4-c4cccnc4Nc4ccccc4-5)cc3)c[nH]c2c1 [Example 202, N-(4-(9H-benzo[f]pyrido[2,3-b][1,2,4]triazolo[4,3-d][1,4]diazepin-3-yl)benzyl)-2-(6-fluoro-1H-indol-3-yl)ethanamine] | 0.21 | 4 | 15 | –
Clc1ccc2nc(CCNCc3ccc(-c4nnc5n4-c4cccnc4Nc4ccccc4-5)cc3)[nH]c2c1 [Example 203, N-(4-(9H-benzo[f]pyrido[2,3-b][1,2,4]triazolo[4,3-d][1,4]diazepin-3-yl)benzyl)-2-(6-chloro-1H-benzo[d]imidazol-2-yl)ethanamine] | 0.15 | 10 | 13 | –
CN(C)c1ccc(-c2nnc3n2-c2cccnc2Nc2ccccc2-3)cc1 [hydrochloride] | 1.6 | 17 | – | 90
Fc1ccc(-c2nnc3n2-c2cccnc2Nc2ccccc2-3)cc1 [hydrochloride] | 23 | – | – | –
c1ccc2c(c1)Nc1ncccc1-n1c(-c3ccc4ccccc4c3)nnc1-2 [hydrochloride] | 29 | – | – | –
